“Also recorded” adds a separate entry of the source. Where a SMILES comes first, the peptide text is derived from it. [ ]: non-standard residue; d: D form. The star is where a group is joined. 5FAM = O=C1OC2(c3ccc(O)cc3Oc3cc(O)ccc32)c2ccc(C(=O)*)cc21; Pro(cis-4-guanidino) = NC(N)=N[C@@H]1CN[C@H](C(=O)O)C1; Cha = N[C@@H](CC1CCCCC1)C(=O)O; Ahx = NCCCCCC(=O)O
What was measured:
[1] = tested on: MCF-7 cells; test: Confocal microscopy of live cells: cellular uptake and intracellular localization; assay type: cell-based; settings: live MCF-7 cells; for Cellular uptake and intracellular localization (confocal microscopy): 1 h, 37 °C, DMEM + 1% FBS; for Intracellular localization after 24 h rest (confocal microscopy, Figure S7): 1 h incubation at 37 °C, washing, 24 h rest in DMEM + 10 % FBS, concentration not given
Experimental: MitoTracker Deep Red was used as a counter stain for mitochondria and Hoechst 33342 for the nucleus. […] To explore whether PPII-helicity is key for mitochondrial localization, we prepared peptide CF-Ahx-(ChaRR)3-NH2 with Arg instead of Gup residues. This control peptide features a flexible conformation as judged by CD spectroscopy (Figure S1B). […] These findings show the importance of the secondary structure of the CPP for subcellular organelle localization.
MCF-7 cells were seeded in a 8-μwell Ibidi plate at 25′000 cells/well in DMEM (100 μL, 10% FCS) and allowed to adhere overnight. The medium was removed, the cells were washed with PBS (200 μL, 1x) and incubated with the peptide solution at 20 μM, 10 μM, 5 μM or 2.5 μM in DMEM (200 μL, 1% FCS) for 1 h at 37 °C. The medium was removed, and the cells were washed with PBS (200 μL, 2x). MitoTracker Deep Red was distributed at 20 nM in DMEM (200 μL, 1% FBS) and the cells were incubated at 37 °C for 25 min. The medium was removed, and the cells were washed with PBS (200 μL, 2x). Hoechst333342 was distributed at 2 μM in DMEM (200 μL, 1% FBS) and the cells were incubated at 37 °C for 5 min. The cells were washed with PBS (200 μL, 2x), and FluoroBrite medium (200 μL) was added. The live cells were monitored on the confocal microscope at 37 °C, 5% CO2.
For the cells subjected to a 24 h rest period, the FluoroBrite medium was exchanged for DMEM (200 μL, 10% FBS) after the initial imaging, and the cells were kept in this medium for 24 h. The culture medium was then exchanged for FluoroBrite DMEM, and the cells were imaged again.
Fluorescence images of cells were collected using a Nikon Eclipse T1 (inverse) microscope equipped with a Yokogawa Confocal Scanner Unit CSU-W1-T2, containing a spinning disk (50 µm). The microscope is equipped with two EMCCD Andor iXon Ultra cameras. Emission in the blue channel (405 nm) was filtered with a 450/50 bandpass filter, emission in the green channel (488 nm) was filtered with a 525/50 bandpass, and the emission in the red channel (641 nm) was filtered with a 708/75 bandpass filter. Fluorescence images were obtained using an oil-immersion objective with a magnification of 100 × 1.4 CFI Plan Apo Oil.
Each experiment was repeated at least three times. The images acquired were adjusted using ImageJ2 software. Correlation coefficients were determined on entire images using JaCOP plugin.1 […]
MCF-7 cells were seeded in a 8-µwell Ibidi plate at 25’000 cells/well in DMEM (100 µL, 10% FCS) and allowed to adhere overnight. The medium was removed. The cells were washed with PBS (200 µL, 1x) and incubated with the peptide solution at 20 µM, 10 µM, 5 µM, or 2.5 µM in DMEM (200 µL, 1% FCS) for 1 h at 37 °C. The medium was removed, and the cells were washed with PBS (200 µL, 2x).
For imaging of mitochondria, MitoTracker Deep Red was added as described in the manuscript. For imaging of endosomes/lysosomes, Ly s o Tr a c k e r Deep Red was added (200 µL, 20 nM in DMEM, 1% FBS) followed by incubation of the cells at 37 °C for 25 min. The medium was removed, and the cells were washed with PBS (200 µL, 2x). For imaging of the nucleus, Hoechst333342 was added at (200 µL, 2 µM in DMEM, 1% FBS) followed by incubation of the cells at 37 °C for 5 min. The cells were washed with PBS (200 µL, 2x), and FluoroBrite medium (200 µL) was added. The live cells were monitored on the confocal microscope […]
MCF-7 cells were seeded in a 96-well plate at 7’500 cells/well in cell culture medium (200 µL, 10% FCS), and allowed to adhere overnight. The medium was removed, the cells were washed with PBS (100 µL, 1x) and incubated with the peptide solution at 20 µM, 10 µM, 5 µM, or 2.5 µM in DMEM (200 µL, 1% FCS) for 1 h at 37 °C. The medium was removed, and the cells were washed with PBS (100 µL, 1x). The MTT solution in DMEM (110 µL, 1.2 mM, 1% FBS) was added. The cells were incubated for 3 h at 37 °C. The […]

[2] = Stability of the peptides in cell lysate; assay type: in vitro ADME; settings: 200 µM peptide, 37 °C, RP-HPLC at 488 nm; for Stability in MCF-7 cell lysate: MCF-7 cell lysate 1 mg/mL protein in PBS, time points 0 min, 1 h and 24 h
Experimental: MCF-7 cells were grown to confluency in a T-175 flask. Cells were washed with PBS (12 mL, 4 °C) and subsequently scraped off into PBS (7 mL, 4 °C) and collected in a Falcon tube. The suspension was then sonicated for 3 sec at an amplitude of 30% followed by a 30 sec rest period, and the procedure was repeated three time. The insoluble fraction was removed by centrifugation for 10 min at 12.000 rcf, at 4 °C and the supernatant was transferred to a new tube. […]
Stability of the peptides in cell lysate
The peptides were added (final concentration of 200 µM) to the MCF-7 cell lysate, with a protein concentration adjusted to 1 mg/mL with PBS. Immediately after addition of the peptide to the cell lysate, a sample (80 µL) was taken as the t = 0 min time point. The sample was diluted in MeCN (1:1), kept on ice for 5 min and centrifuged (12.000 rcf, 10 min, 4 °C). The supernatant was filtered and analyzed by analytical RP-HPLC (at 488 nm) using the standard conditions (gradient 70 % to 45 % of B over 20 min at 25 °C).
The stability of the peptides was monitored at time points 0 min, 1 h and 24 h.

[3] = concentration not stated at the place or given within the value

Compound	Cellular uptake and intracellular localization (confocal microscopy) ([1]; 5 μM peptide)	Cellular uptake and intracellular localization (confocal microscopy) [1, 3]	Intracellular localization after 24 h rest (confocal microscopy, Figure S7) [1]	metabolised at 24 h ([2]; human, cells or culture medium, lysate 1 mg/mL protein in PBS, after 24 h incubation, read-out: Fraction degraded in MCF-7 cell lysate) [%]	Cellular uptake and intracellular localization (confocal microscopy) ([1]; 10 μM peptide, MitoTracker Deep Red and Hoechst 33342 counterstain)	Stability in MCF-7 cell lysate [2]	Cellular uptake and intracellular localization (confocal microscopy) ([1]; 20 μM peptide)
N=C(N)N[C@H]1C[C@@H](C(=O)N2C[C@@H](NC(=N)N)C[C@H]2C(=O)N[C@@H](CC2CCCCC2)C(=O)N2C[C@@H](NC(=N)N)C[C@H]2C(=O)N2C[C@@H](NC(=N)N)C[C@H]2C(=O)N[C@@H](CC2CCCCC2)C(=O)N2C[C@@H](NC(=N)N)C[C@H]2C(=O)N2C[C@@H](NC(=N)N)C[C@H]2C(=O)N[C@@H](CC2CCCCC2)C(N)=O)N(C(=O)[C@H](CC2CCCCC2)NC(=O)CCCCCNC(=O)c2ccc3c(c2)C(=O)OC32c3ccc(O)cc3Oc3cc(O)ccc32)C1 [(ChaZZ)3-Cha, CF-Ahx-(ChaZZ)3-Cha-NH2] ({5FAM-Ahx}-[Cha][Pro(cis-4-guanidino)][Pro(cis-4-guanidino)][Cha][Pro(cis-4-guanidino)][Pro(cis-4-guanidino)][Cha][Pro(cis-4-guanidino)][Pro(cis-4-guanidino)][Cha]-NH2)	intracellular localization	localized in mitochondria, endosomes, and the plasma membrane; also recorded: localized in the mitochondria and not the nucleus but was also trapped in endosomes	localized predominantly in the mitochondria	~6			
CF-Ahx-(ChaZZ)3-NH2	low uptake; also recorded: no fluorescence was visible; also recorded: minimal fluorescence	localized in the cytoplasm, the nucleoli, and the mitochondria at concentrations of 10 μM and higher	localized predominantly in the mitochondria		localizes in the mitochondria; also recorded: localized in the mitochondria as well as in the cytoplasm and the nucleoli	stable	
CF-Ahx-(ChaZZ)2-Cha-NH2		localized in mitochondria and the cytoplasm	localized in the cytoplasm as punctuated fluorescence and remains slightly in the mitochondria			degraded in the MCF-7 cell lysate over time	strong mitochondrial colocalization at 20 μM (Figure D) with limited endosomal entrapment

— article PMC12455572, “Amphipathic Proline-Rich Cell Penetrating Peptides for Targeting Mitochondria” (ACS Chemical Biology, 2025)
